Measurements published in PubChem BioAssay AID1506 (NMMLSC, 2009).
Active and inactive are the calls of the source. The rule behind the calls is not given here.

Test system: S. aureus strains, lipase production inhibition
Experiment: inhibition of S. aureus lipase production, S. aureus quorum sensing inhibitors, NM300, NM400, MRSA3757 (AID 1506)
Conditions: for inhibition: stronger effect = higher value
[1] = lipase inhibition, MRSA3757, at 12 µM
[2] = lipase inhibition, strain NM400, at 12 µM

outcome (at 12 µM)	inhibition [1] [%]	inhibition [2] [%]	inhibition (at 6 µM) [%]	inhibition (lipase inhibition, strain NM300, at 6 µM) [%]	inhibition (at 30 µM) [%]	inhibition (lipase inhibition, strain NM300, at 30 µM) [%]	SMILES
inactive; agr3 active	0	68	–	–	–	–	CC1CCCN(C(C(=O)Nc2ccc3c(c2)OCCO3)c2ccccc2)C1 (stereo not given)
–	–	–	80	95	–	–	CCc1oc2ccccc2c1C(=O)c1cc(Br)c(O)c(Br)c1
–	–	–	–	–	80	90	Cc1c(Cl)cccc1Nc1ccccc1C(=O)O
inactive; agr3 active	0	84	–	–	–	–	CC1CCCN(C(C(=O)Nc2ccc3c(c2)OCO3)c2ccccc2)C1 (stereo not given)
